Like-named read-outs stand apart in the source and are kept apart here.
Experiments:
A549 cells [1] = conditions: cited from earlier work
HeLa = test system: HeLa; set-up: method as in PMID 8823519; conditions: HeLa ref 87; cited from earlier work
[2] = test system: MEF: murine embryonic fibroblast; experiment: WST-1 cell viability, MEF; assay type: cell-based; conditions: Mus musculus, non-cancer cell line
Excerpt: (§1) Different cells were utilized as follows: MEF: murine embryonic fibroblast (RRID: CVCL_L690); AML12: mouse liver cell lines (RRID: CVCL_0140); WI-38: human lung fibroblast cell lines (RRID: CVCL_0579); THLE-2: human liver epithelial cell lines (RRID: CVCL_3803); A549: human lung cancer cell lines (RRID: CVCL_0023); HEPG2: human liver cancer cell lines (RRID: CVCL_0027); HEP3B: human hepatoma cell lines (RRID: CVCL_0326); BxPC3: human pancreatic cancer cell lines (RRID: CVCL_0186); U87: human primary glioblastoma cell lines (RRID: CVCL_0022); DU145: human prostate cancer cell lines (RRID: CVCL_0105); MCF7: human breast cancer cell lines (RRID: CVCL_0031); HeLa: human cervical cancer cell lines (RRID: CVCL_0030); HCT116: human colon cancer cell lines (RRID: CVCL_0291). Cells were maintained in Dulbecco’s modified Eagle’s medium (DMEM, Gibco) supplemented with L-glutamine (Lonza) (2 mM), 10% fetal bovine serum (FBS, Hyclone), 1 × non-essential amino acids, and sodium pyruvate (1 mM). THLE-2 cells were maintained in THLE-2 Cell Complete Medium (Zhong Qiao Xin Zhou, Shanghai, China). Cells were incubated at 37 °C in a humidified incubator with 5% CO2. […]
(§2) Cell viability was assessed using the WST-1 assay, based on a previously reported method with slight modifications. […] Absorbance at OD450 was measured using a microplate reader (Synergy H1; BioTek Instruments, Winooski, VT, USA).

[3] = test system: AML12: mouse liver cell lines; experiment: WST-1 cell viability, AML12; assay type: cell-based; conditions: AML12, non-cancer cell line
Excerpt: as §1, §2

[4] = test system: WI-38: human lung fibroblast cell lines; experiment: WST-1 cell viability, WI-38; assay type: cell-based; conditions: WI-38, non-cancer cell line
Excerpt: as §1, §2

[5] = test system: THLE-2: human liver epithelial cell lines; experiment: WST-1 cell viability, THLE-2; assay type: cell-based; conditions: THLE-2, non-cancer cell line
Excerpt: as §1, §2

[6] = test system: HEPG2: human liver cancer cell lines; experiment: WST-1 cell viability, HEPG2; assay type: cell-based; conditions: HEPG2 (liver) cancer cell line
Excerpt: as §1, §2

[7] = test system: HEP3B: human hepatoma cell lines; experiment: WST-1 cell viability, HEP3B; assay type: cell-based; conditions: HEP3B (liver) cancer cell line
Excerpt: as §1, §2

[8] = test system: BxPC3: human pancreatic cancer cell lines; experiment: WST-1 cell viability, BxPC3; assay type: cell-based; conditions: BXPC-3, BxPC3 (pancreatic) cancer cell line
Excerpt: as §1, §2

[9] = test system: U87: human primary glioblastoma cell lines; experiment: WST-1 cell viability, U87; assay type: cell-based; conditions: U87 (glioblastoma) cancer cell line
Excerpt: as §1, §2

[10] = test system: DU145: human prostate cancer cell lines; experiment: WST-1 cell viability, DU145; assay type: cell-based; conditions: DU-145, DU145 (prostate) cancer cell line
Excerpt: as §1, §2

[11] = test system: A549: human lung cancer cell lines; experiment: WST-1 cell viability, A549; assay type: cell-based; conditions: Homo sapiens, A549, A549 (lung) cancer cell line, WST-1
Excerpt: Different cells were utilized as follows: MEF: murine embryonic fibroblast (RRID: CVCL_L690); AML12: mouse liver cell lines (RRID: CVCL_0140); WI-38: human lung fibroblast cell lines (RRID: CVCL_0579); THLE-2: human liver epithelial cell lines (RRID: CVCL_3803); A549: human lung cancer cell lines (RRID: CVCL_0023); HEPG2: human liver cancer cell lines (RRID: CVCL_0027); HEP3B: human hepatoma cell lines (RRID: CVCL_0326); BxPC3: human pancreatic cancer cell lines (RRID: CVCL_0186); U87: human primary glioblastoma cell lines (RRID: CVCL_0022); DU145: human prostate cancer cell lines (RRID: CVCL_0105); MCF7: human breast cancer cell lines (RRID: CVCL_0031); HeLa: human cervical cancer cell lines (RRID: CVCL_0030); HCT116: human colon cancer cell lines (RRID: CVCL_0291). Cells were maintained in Dulbecco’s modified Eagle’s medium (DMEM, Gibco) supplemented with L-glutamine (Lonza) (2 mM), 10% fetal bovine serum (FBS, Hyclone), 1 × non-essential amino acids, and sodium pyruvate (1 mM). THLE-2 cells were maintained in THLE-2 Cell Complete Medium (Zhong Qiao Xin Zhou, Shanghai, China). Cells were incubated at 37 °C in a humidified incubator with 5% CO2. A549 cells were previously stored in the lab and other cell lines were a gift from Haishan Wang’s lab (Institute of Molecular and Cell Biology, Singapore). All cell lines were confirmed to be contamination-free.
(§3) Cell viability was assessed using the WST-1 assay, based on a previously reported method with slight modifications. Briefly, cells were seeded at 1 × 10^4 cells per well in 96-well plates and then treated with different doses of JH62 or DOX for 0–72 h. The cells used included non-cancer cells (MEF, AML12, WI-38, and THLE-2) and cancer cells (A549, HEPG2, HEP3B, BxPC3, U87, DU145, MCF7, HeLa, and HCT116). The WST-1 reagent (Roche, Shanghai, China) was added to each well (10% vol/vol final concentration), followed by incubation for 3 h at 37 °C. Absorbance at OD450 was measured using a microplate reader (Synergy H1; BioTek Instruments, Winooski, VT, USA).

[12] = test system: MCF7: human breast cancer cell lines; experiment: WST-1 cell viability, MCF7; assay type: cell-based; conditions: MCF7 (breast) cancer cell line
Excerpt: as §1, §2

[13] = test system: HeLa: human cervical cancer cell lines; experiment: WST-1 cell viability, HeLa; assay type: cell-based; conditions: HeLa (cervical) cancer cell line
Excerpt: as §1, §2

[14] = test system: HCT116: human colon cancer cell lines; experiment: WST-1 cell viability, HCT116; assay type: cell-based; conditions: HCT-116, HCT116 (colon) cancer cell line
Excerpt: as §1, §2

A549 cells [15] = experiment: Chromosome staining experiment; assay type: cell-based, human; conditions: A549, 5 μM DOX or 25 μM JH62 for 6 h
Protocol: Metaphase chromosome spreads were prepared from A549 cells. Briefly, A549 cells were cultured. After treatment with JH62 or DOX, cells were incubated with Colcemid (Gibco BRL; 0.2 μg/mL final concentration) for 2 h to arrest cells in metaphase. Cells were then subjected to hypotonic treatment in KCl (0.075 M) at 37 °C for 5 min, and fixed by repeated washing with ice-cold freshly prepared 3:1 (vol/vol) methanol:acetic acid. Chromosome spreads were prepared on premarked glass slides using the “drop-cryo” protocol. The chromosome suspension was dropped onto a slide. This was followed by adding three drops of 45% acetic acid and placing a coverslip over the suspension. The slide was then inverted and placed on dry ice for 15 min. The spreads were postfixed in 2.5% glutaraldehyde in cacodylate buffer (pH 7.4, 75 mM) for 15 min and washed with cacodylate buffer (0.1 M). The chromosomes were stained with Vista Green DNA dye (Cell Biolabs, Singapore). After staining, the preparations were washed in water for 5, 10, and 15 min, then dehydrated using a series of ethanol solutions as follows: 5 min in a 70% solution, 10 min in an 85% solution, and 15 min in 100% ethanol. Finally, slides were mounted with a permanent mounting medium, sealed, and analyzed by microscopy.

A549 cells [16] = experiment: DNA fragmentation analysis (genomic DNA electrophoresis); assay type: cell-based, human; conditions: A549, 24 h; JH62 5–100 µM, DOX 1 and 5 μM
Protocol: Genomic DNA fragmentation was analyzed by agarose gel electrophoresis using previously described methods. A549 cells were seeded in 6 cm tissue culture dishes and cultured overnight. Before treatment with JH62 or DOX, the cells were cultured in DMEM lacking FBS for 16 h. After treatment, the cells were then washed three times with PBS and genomic DNA was extracted using a MasterPure™ DNA Purification Kit (Lucigen Corporation, Middleton, WI, USA). The DNA pellet was airdried and resuspended in Tris-HCl (pH 8.0, 10 mM). DNA samples (2.5 μg) were separated by 1% agarose gel electrophoresis in TAE buffer containing ethidium bromide.

A549 cells [17] = experiment: Comet assay; assay type: cell-based, human; conditions: A549, 1, 8, and 12 h
Protocol: Residual DNA damage was detected by alkaline single cell gel electrophoresis (Comet Assay) using the Trevigen Comet Assay Kit (Trevigen, Gaithersburg, MD, USA) following the manufacturer’s protocol with slight modifications. […] The treated cells were trypsinized and pelleted by centrifugation. The cell pellets were washed and resuspended in 2 mL of ice-cold PBS. The cell suspension was mixed 1:10 (vol/vol) with low-melting point agar at 42 °C and immediately pipetted onto a CometSlide™. Slides were incubated at 4 °C in the dark for 30 min, immersed in chilled lysis solution and incubated again at 4 °C for 30 min. Slides were placed in a horizontal electrophoresis chamber and electrophoresed with buffer NaOH (0.3 M) and EDTA (1 mM) at 1 V/cm for 15 min. Samples were dried and stained with Vista Green DNA dye (Cell Biolabs, Singapore). Comet tails were imaged using a model DM 2500 fluorescent microscope (Leica, Wetzlar, Germany) and quantified by Komet 5.5 software (Andor Technology, Belfast, UK). A minimum of 50 cells were scored per treatment. All experiments were performed independently in triplicate.

[18] = test system: non-cancer cells (MEF, AML12, WI-38, and THLE-2); experiment: WST-1 cell viability, panel of non-cancer cells; assay type: cell-based; conditions: across non-cancer cells (MEF, AML12, WI-38, and THLE-2)
Protocol: as §3

cancer cell lines = experiment: WST-1 cell viability, panel of cancer cell lines; assay type: cell-based; conditions: Homo sapiens; across the tested cancer cell lines
Protocol: as §3

[19] = test system: both non-cancer and cancer cells; experiment: WST-1 cell viability, non-cancer and cancer cells together; assay type: cell-based; conditions: against both non-cancer and cancer cells
Protocol: Cell viability was assessed using the WST-1 assay, based on a previously reported method with slight modifications [54]. […] The cells used included non-cancer cells (MEF, AML12, WI-38, and THLE-2) and cancer cells (A549, HEPG2, HEP3B, BxPC3, U87, DU145, MCF7, HeLa, and HCT116). The WST-1 reagent (Roche, Shanghai, China) was added to each well (10% vol/vol final concentration), followed by incubation for 3 h at 37 °C. Absorbance at OD450 was measured using a microplate reader (Synergy H1; BioTek Instruments, Winooski, VT, USA).

[20] = clinically successful drugs; cited from earlier work

## Oc1cccc2cccnc12 [8-hydroxyquinoline]
A549 cells [1]; A549 ref 85
  IC50: 26000 nM

## CCCCCC/C=C/Cc1c(C)c(=O)c2ccccc2n1O [E-1-hydroxy-2-(non-2-enyl)-3-methyl-4-quinolone]
HeLa
  IC50: 1900 nM

## COc1cccc2c1C(=O)c1c(O)c3c(c(O)c1C2=O)C[C@@](O)(C(=O)CO)C[C@@H]3O[C@H]1C[C@H](N)[C@H](O)[C@H](C)O1 [DOX, Doxorubicin, reference compound]
[2]
  IC50: 3900 ± 400 nM
[3]
  IC50: 5100 ± 1300 nM
[4]
  IC50: 1900 ± 300 nM
[5]
  IC50: 1200 ± 100 nM
[6]
  IC50: 800 ± 100 nM
[7]
  IC50: 3300 ± 200 nM
[8]
  IC50: 1900 ± 100 nM
[9]
  IC50: 1400 ± 1000 nM
[10]
  IC50: 1900 ± 200 nM
[11]
  IC50: 2100 ± 500 nM
[12]
  IC50: 1200 ± 500 nM
[13]
  IC50: 700 ± 700 nM
[14]
  IC50: 3900 ± 700 nM
A549 cells [15]
  chromosome morphology: fragmented and adhered together
A549 cells [16]
  genomic DNA integrity (electrophoresis): obvious DNA fragmentation
A549 cells [17]
  comet tail analysis: distinct and typical comet tail
[18]
  IC50: 1200 to 5100 nM
Cancer cell lines
  IC50: 700 to 3900 nM
[19]
  IC50: 500 to 5000 nM

## CCCCCCCc1[nH]c2ccccc2c(=O)c1O [PQS, 2-heptyl-3-hydroxy-4(1H)-quinolone]
A549 cells [1]; A549 cells ref 82,83
  IC50: 19000 nM

## O=C1NC(=O)C(c2ccccc2)(c2ccccc2)N1 [phenytoin]
[20]
  PPB: exceeding 98%

Source: paper PMC12844237, “A Novel Quinolone JH62 (E-2-(Tridec-4-en-1-yl)-quinolin-4(1H)-one) from Pseudomonas aeruginosa Exhibits Potent Anticancer Activity” (Microorganisms, 2025)
